Source: patent publication US20260215427A1, “NON-BIPYRIDYL SALT HERBICIDE, PREPARATION METHOD THEREFOR, AND USE THEREOF” (priority 2022, published 2026)

Columns and labels:
[1] = tested on: Arabidopsis thaliana; test: Herbicidal performance, leaf spray under air and sunlight; type: in vivo; conditions: for state of leaves 24 hours after spraying: various concentrations (1, 2, 4, 8 times PQ equivalent), air and sunlight
Description: (§1) As is well-known, Bermuda grass, Arabidopsis thaliana, and Acorus calamus are naturalized green weeds in most parts of the world and are also invasive grasses. Photosynthesis occurs throughout their entire leaves and bundles. […] Therefore, Bermuda grass, Acorus calamus, and Arabidopsis thaliana were selected as plant models to evaluate the herbicidal performance of the compounds in the present invention.
(§2) Under air and sunlight, the compound of formula 2 of the present invention was sprayed on the leaf surface at concentrations of 1, 2, 4, and 8 times the PQ equivalent, respectively. Paraquat herbicide was used as the positive control, and physiological saline was used as the blank control group. The diameter of the observation range was 8 cm.

[2] = tested on: Acorus calamus; test: as above; type: in vivo; conditions: for state of leaves 24 hours after spraying: various concentrations (1, 2, 4, 8 times PQ equivalent), air and sunlight
Description: as §1, §2

[3] = tested on: Bermuda grass; test: as above; type: in vivo; conditions: for state of leaves 24 hours after spraying: various concentrations (1, 2, 4, 8 times PQ equivalent), air and sunlight
Description: as §1, §2

[4] = tested on: humans; conditions: background data; cited from earlier work
[5] = tested on: mice; test: Acute toxicity test and LD50 determination in mice, intraperitoneal injection; type: in vivo
Procedure: (§3) In order to evaluate the safety of compound 2 of the present invention in vivo, acute toxicity tests were conducted on mice. Firstly, the LD50 of diene diamine in mice was measured. […] The toxicity of diene diamine in mice is low and the safety is high.

[6] = tested on: mice; test: Organ indices and biochemical indicators 48 hours after intraperitoneal injection in mice; type: in vivo; conditions: for levels of SOD and CAT in lung tissue / serum levels of TNF-α, IL-B, IL-6, AST, ALT, SCr, BUN, and uric acid: 50 mg/kg paraquat or same dose, 48 hour; for lung, liver, and kidney indices compared with the control group / cardiac index: 50 mg/kg paraquat or same molar dose, 48 hours; for cardiac index: among the three groups
Description: P<0.05 is considered statistically significant, with 10 mice per group (n=10).
However, no significant differences in these biochemical indicators were detected after intraperitoneal injection of the compound of formula 2 diene diamine at the same molar concentration.

[7] = tested on: mice; test: Damage of major organs (histopathology) 48 hours after intraperitoneal injection in mice; type: in vivo; conditions: 48 hours after intraperitoneal administration
Description: The data is expressed as mean±standard error, with 6 mice per group (n=6), and P<0.05 indicates statistically significant differences. Scale bar: 50 μm.

[8] = tested on: mice; test: Survival rate and body weight of mice after intraperitoneal injection; type: in vivo; conditions: 0.19 mmol/kg intraperitoneal
[9] = tested on: mice; test: Transmission electron microscopy of main organs 48 hours after intraperitoneal injection in mice; type: in vivo; conditions: 0.19 mmol/kg intraperitoneal
Procedure: 48 hours after intraperitoneal injection of 0.19 mmol/kg of paraquat or the compound of formula 2, transmission electron microscopy samples of the lung, liver, kidney, and heart were collected. The black arrow indicated mitochondrial damage, and the electron microscopy scale of the heart group was 200 nm, and the electron microscope scale of other groups was 100 nm.

[10] = tested on: mice; test: PQ-induced lethality in mice, single intraperitoneal injection, dose and timing finding; type: in vivo
Procedure: Firstly, the optimal dose and timing for PQ-induced lethality in mice were determined through single intraperitoneal injection at doses of 20, 30, 40, 50, and 60 (mg/kg). […] Therefore, 50 mg/kg was chosen as the optimal dose. The mouse tissue samples were collected 48 hours after PQ administration.

[11] = tested on: A549 cells; test: Direct cytotoxicity, cell viability and IC50; type: cell-based; conditions: for cell viability: A549, co-culture 24 hours, concentration gradient
Description: (§4) PQ is rapidly absorbed and distributed to the lungs, kidneys, liver, and muscles after entering the human body. Death caused by ingestion of PQ is usually due to multiple organ failure, such as pulmonary edema, kidney and liver failure. Therefore, lung cells (A549 cells), kidney cells (COS-7), and liver cells (Hep G2) were selected to evaluate the direct cytotoxicity of diene diamine.

[12] = tested on: Hep G2 cells; test: Direct cytotoxicity, cell viability and IC50; type: cell-based; conditions: for cell viability: Hep G2, co-culture 24 hours, concentration gradient
Description: as §4

[13] = tested on: COS-7 cells; test: Direct cytotoxicity, cell viability and IC50; type: cell-based; conditions: for cell viability: COS-7, co-culture 24 hours, concentration gradient
Description: as §4

[14] = tested on: A549 cells; test: Intracellular ROS levels, DCF fluorescence, flow cytometry; type: cell-based; conditions: 100 μM, 18 hours
Procedure: (§5) The above three types of cells were exposed to 100 μM PQ (100) and 100 μM of the compound of formula 2 and incubated for 18 hours, and the intracellular reactive oxygen species (ROS) levels were quantified using flow cytometry. Intracellular ROS levels were measured using DCF fluorescence (n=6).

[15] = tested on: Hep G2 cells; test: as above; type: cell-based; conditions: 100 μM, 18 hours
Procedure: as §5

[16] = tested on: COS-7 cells; test: as above; type: cell-based; conditions: 100 μM, 18 hours
Procedure: as §5

[17] = Conversion of the compound of formula 2 to PQ under lighting and air conditions in physiological saline; type: physicochemical; conditions: air; for Yield (conversion to PQ): darkness, 72 h; for Yield (conversion rate to PQ): natural light, 24 h
[18] = Acute toxicity test and LD50 determination in mice, intraperitoneal injection; type: in vivo; conditions: mouse, in vivo, ip; mice, intraperitoneal injection, seventh day
Procedure: as §3

[19] = tested on: Arabidopsis thaliana; test: Herbicidal mechanism: LC-MS, chlorophyll and photosystem parameters, electron microscopy after spraying; type: in vivo
[20] = Direct cytotoxicity, cell viability and IC50; type: cell-based; conditions: 24 hours
Description: as §4

[21] = tested on: A549 cells; test: Apoptosis, Annexin V-FITC and propidium iodide staining; type: cell-based; conditions: 24 hours of incubation
Description: (§6) The data was expressed as + SEM. *p<0.05, p<0.05, **p<0.01, ***p<0.001, ****p<0.0001.

[22] = tested on: Hep G2 cells; test: as above; type: cell-based; conditions: 24 hours of incubation
Description: as §6

[23] = tested on: COS-7 cells; test: as above; type: cell-based; conditions: 24 hours of incubation
Description: as §6

[24] = tested on: Bermuda grass; test: Herbicidal performance of the compound of formula 3, leaf spray, diquat as positive control; type: in vivo; conditions: air and sunlight
Description: Under air and sunlight, the compound of formula 3 of the present invention was sprayed on the surface of leaves, with herbicide diquat as a positive control. The diameter of the observation range was 10 cm.

[25] = 300 mg/kg intraperitoneal, 8 mice
[26] = 600 mg/kg intraperitoneal, 8 mice
[27] = 900 mg/kg intraperitoneal, 8 mice
[28] = 1050 mg/kg intraperitoneal, 8 mice
[29] = 1200 mg/kg intraperitoneal, 8 mice
[30] = 25 °C, listed as diene diamine compound

## C[n+]1ccc(-c2cc[n+](C)cc2)cc1.[Cl-].[Cl-] [PQ, 1,1-dimethyl-4,4′-bipyridinium dichloride, reference compound]
[1]
  state of leaves 24 hours after spraying: began to wither
[2]
  state of leaves 24 hours after spraying: began to wither
[3]
  state of leaves 24 hours after spraying: began to wither
[4]
  mortality rate of toxic ingestion incidents: 50-90%
[5]; [25]
  Mortality, n (%) Day 1: 0 (0) n (%)
  Mortality, n (%) Day 7: 0 (0) n (%)
[5]; [26]
  Mortality, n (%) Day 1: 0 (0) n (%)
  Mortality, n (%) Day 7: 0 (0) n (%)
[5]; [27]
  Mortality, n (%) Day 1: 3 (37.5) n (%)
  Mortality, n (%) Day 7: 3 (37.5) n (%)
[5]; [28]
  Mortality, n (%) Day 1: 3 (37.5) n (%)
  Mortality, n (%) Day 7: 3 (37.5) n (%)
[5]; [29]
  Mortality, n (%) Day 1: 8 (100) n (%)
  Mortality, n (%) Day 7: 8 (100) n (%)
[6]
  levels of SOD and CAT in lung tissue: significantly decreased
  serum levels of TNF-α, IL-B, IL-6, AST, ALT, SCr, BUN, and uric acid: significantly increased
  lung, liver, and kidney indices compared with the control group: significantly increased
  cardiac index: no statistical difference
[7]
  pathological damage of major tissues (lung, liver, kidney, heart): multiple organic damages accompanied by significant inflammation
  tissue damage scores of the main organs: significantly higher than those in the control group and the diene diamine group
[8]
  weight of the mice: continued to decrease
[8]; within 112 hours after administration
  mice died: 100%
[9]
  mitochondrial structure in lung, liver, kidney, and heart tissues (transmission electron microscopy): mitochondrial damage such as swelling, vacuolization, blurring, or fragmentation
[10]; 24 hours after PQ administration
  lung injury score: significant increase
[10]; compared to other time points
  time point of the highest lung injury score: 48 h
[10]; single intraperitoneal injection, 20 and 30 mg/kg, all mice
  survival time: over 168 hours
[10]; single intraperitoneal injection, 50 or 60 mg/kg
  body weight on the first day: significant weight loss
[11]
  cell viability: direct cytotoxic effects
[11]; A549 cells, 24 hours
  IC50: 322 µM
[12]
  cell viability: direct cytotoxic effects
[12]; hep G2 cells, 24 hours
  IC50: 131 µM
[13]
  cell viability: direct cytotoxic effects
[13]; Cos-7 cells, 24 hours
  IC50: 114 µM
[14]
  intracellular ROS production: significant increase in ROS production
[15]
  intracellular ROS production: significant increase in ROS production
[16]
  intracellular ROS production: significant increase in ROS production

## CN1CC=C(C2=CCN(C)CC2)CC1 [compound of formula 2, 1,1′-dimethyl-1,1′, 2,2′, 3,3′, 6,6′-octahydro-4,4′-bipyridine]
[1]; same or twice the dose of PQ
  weed control effect compared with PQ: slightly delayed weed control effect
[1]
  state of leaves 24 hours after spraying: began to wither
[2]; same or twice the dose of PQ
  weed control effect compared with PQ: slightly delayed weed control effect
[2]
  state of leaves 24 hours after spraying: began to wither
[3]; same or twice the dose of PQ
  weed control effect compared with PQ: slightly delayed weed control effect
[3]
  state of leaves 24 hours after spraying: began to wither
[17]; 25 °C
  Yield (conversion to PQ): 0%
  Yield (conversion rate to PQ): 30%
[17]; [30]
  Yield (conversion to PQ): hardly converted to PQ
  Yield (conversion rate to PQ): about 30%
[17]; 40 °C
  Yield (conversion rate to PQ): 63%
[17]; 40 °C, listed as diene diamine compound
  Yield (conversion rate to PQ): about 63%
[18]
  LD50 at 7 day: 1000 mg/kg
[5]; [29]
  deaths: Eight mice died
[5]; 300 and 600 mg/kg intraperitoneal, third day after administration
  survival: all mice survived
[5]; 900 and 1050 mg/kg intraperitoneal, respectively, 8 mice per dose
  deaths: Three mice died
[19]
  electron microscopy findings after 8 hours: chloroplast stroma lysis, swelling of thylakoids and mitochondrial cristae
  electron microscopy findings after 24 hours: rupture of mesophyll cell nuclei, mitochondria, and chloroplast envelopes
[19]; natural sunlight and air
  chlorophyll content, maximum fluorescence quantum yield of PSII, Fv/Fm value, and SPAD: significant decreases
[6]
  levels of SOD and CAT in lung tissue: no significant changes
  serum levels of TNF-α, IL-B, IL-6, AST, ALT, SCr, BUN, and uric acid: no significant changes
  lung, liver, and kidney indices compared with the control group: no statistical difference
  cardiac index: no statistical difference
[7]
  pathological damage of major tissues (lung, liver, kidney, heart): no significant pathological damage
[8]
  weight of the mice: continued to steadily increase
[8]; after 168 hours
  survival: all mice in the group of the compound of formula 2 survived
[9]
  mitochondrial structure in lung, liver, kidney, and heart tissues (transmission electron microscopy): No significant mitochondrial structural damage
[11]
  cell viability: no significant changes in cell viability
[11]; A549 cells
  IC50 value relative to the PQ treatment group: increased by dozens of times
[20]; African green monkey, Cos-7 cells
  IC50: 1570 µM
[20]; human, A549 cells
  IC50: 5770 µM
[20]; human, hep G2 cells
  IC50: 1360 µM
[12]
  cell viability: no significant changes in cell viability
[12]; Hep G2 cells
  IC50 value relative to the PQ treatment group: increased by dozens of times
[13]
  cell viability: no significant changes in cell viability
[13]; COS-7 cells
  IC50 value relative to the PQ treatment group: increased by dozens of times
[14]
  intracellular ROS production: no significant changes
[15]
  intracellular ROS production: no significant changes
[16]
  intracellular ROS production: no significant changes
[21]
  apoptosis rate compared to the PQ group: significantly reduced
[22]
  apoptosis rate compared to the PQ group: significantly reduced
[23]
  apoptosis rate compared to the PQ group: significantly reduced

## C1=CCN2CCN3CC=CCC3C2C1 (stereo not drawn) [compound of formula 3, 1,4,6,7,9,12,12a, 12b octahydrodipyridin [1,2-a: 2′, 1′-c]pyrazine]
[24]
  weed control effect relative to diquat: comparable to that of diquat
[24]; concentration not specified
  state of leaves 3 days after spraying: began to wither
  state of leaves after 5 days: completely withered
